The test system of assay [1] is TGF-β-induced fibronectin expression. As to the kind of experiment: Western blot of TGF-β-induced fibronectin expression in WPMY-1 fibroblasts. In kind it is cell-based, human. The conditions noted are these: WPMY-1, 5 ng/ml TGF-β, digoxin 30, 60, 120, 240 nM, 24 hours. The procedure: (§1) Inhibitors of CAF Differentiation. A. WPMY-1 cells were plated into each well of 4-chamber slice (for IF), or (C) in a 24 well plate (for western blot analysis). After cell attachment, vehicle or 5 ng/ml TGF-β was added into each well and incubated for 24 h in a 37° C. in a humidified incubator containing 5% CO2. For fluorescence detection (A), cells were fixed and stained with antibody detecting fibronectin and/or stained with DAPI to detect the nuclei. Protein was extracted with boiling Lamaelli buffer for WB (C) and blots were probed with anti-fibronectin or anti-tubulin antibodies. Fibronectin fluorescence (D and E) was measured in the presence or absence of TGF-β in 8 well replicates as follows. Cells were conditioned in serum-free DMEM for 48 hr prior to the addition of TGF-β. Images were acquired using a Cellomics platform with a mask shown in the schematic of (B). The mean of the total fluorescence intensity in each well was calculated from 300 cells per image field and up to 15 fields from each well for fibronectin. The fold change in fibronectin expression per acquired image (nuclei) is shown (Mean+/−SD).
Panel A1 is the control, Panel A2 is the TGF-β treated wells and Panel A3 is TGF-β plus PsA at 5 micromolar. Images were captured using the Cellomics imaging system.
Representative blots are shown with two exposures of fibronectin to account for strong signal intensity. n=3.
FIGS. 9A-9B: Increases in intracellular Ca^2+ prevent TGF-β-induced fibronectin expression. (A) WPMY-1 fibroblasts were treated with 2.5 μM thapsigargin±5 ng/ml TGF-β for 24 hours. (B) WPMY-1 fibroblasts were treated with 2.5-10 μM 3′,4′-dichlorobenzamil hydrochloride (DCB)±5 ng/ml TGF-β for 24 hours. Cell lysates were analyzed by western blot for fibronectin expression.
Because of the observed low nanomolar effective concentration of the cardiac glycosides, the inventors hypothesized that the cardiac glycosides may be acting by binding to their high affinity target, the Na^+/K^+ ATPase, and that action through the ATPase is the mechanism by which the cardiac glycosides are able to block TGF-β-induced fibronectin expression. It is well documented that inhibition of the Na^+/K^+ ATPase by digoxin leads to increases in intracellular Ca^2+ by preventing Ca^2+ efflux through the Na^+/Ca^2+ exchanger. In order to determine if increased intracellular Ca^2+ is sufficient to prevent TGF-β-induced fibronectin expression, the inventors utilized two compounds that increase intracellular Ca^2+ concentrations. 3′,4′-dichlorobenzamil hydrochloride (DCB) inhibits the Na^+/Ca^2+ exchanger, Na^+ transport, and sarcoplasmic reticulum Ca^2+ release channels. Thapsigargin inhibits the endoplasmic reticulum Ca^+ ATPase, preventing storage of Ca^2+ in the endoplasmic reticulurn, causing an accumulation in the cytoplasm. Cells were treated with 2.5-10 μM of DCB or thapsigargin±TGF-β for 24 hours.
For orientation: Immunoblotting shows a protein as a band on a membrane.

Assay [2] concerns TGF-β-induced fibronectin. The assay can be described thus: High content imaging (Cellomics) screen for inhibitors of fibronectin induction by TGF-beta in WPMY-1 cells. In kind it is cell-based, human. The conditions noted are these: WPMY-1, 0-100 uM, TGF-β 24 hour. The procedure:
as §1, with “The fold change in fibronectin expression per acquired image (nuclei) is shown (Mean+/−SD).” left out
FIGS. 4A-4H: Dose response for identified hits. As shown in the four panels of FIG. 4A, fibronectin fluorescence was measured from images acquired following a Cellomics scan using WPMY-1 cells with concentrations of hits over a range of 0-100 uM. […] Results were expressed as percent inhibition caused by cells treated with TGF-β alone and without testing compound, which was considered as 100%. […]
FIGS. 14-15 show Table I—Prestwick Library and Table II—NIH Library chemicals respectively. […] A “hit” was defined as a compound causing at least 50% reduction of “Mean_RingTotal Intensity”, which is the fluorescence intensity within the defined ring (see FIG. 2) surrounding nucleus of each cell, summed for 300 cells per image and 15 fields per image. The solvent, 0.1% Dimethyl Sulfoxide (DMSO), with and without TGF-beta served as an internal control on each plate to normalize day-to-day and plate-to-plate variation with DMSO alone as low fluorescence (0%) and TGF-β treated as maximal fluorescence (100%). […]

The subject of assay [3] is transcriptional upregulation of activated fibroblasts markers by TGF-β or IL-8. The conditions noted are these: MRC-5, 10 ng/mL TGF-β or 20 ng/ml IL-8, 24 hours; digoxin 150 nM, pyrvinium 300 nM. How it is done:
Expression of the indicated genes was analyzed by real-time qPCR. TGFβ treated samples were set at 1 and other conditions were normalized accordingly. FN1: fibronectin, YAPv4: yes-activated protein, TNC: tenascin C, Col1A1: collagen 1a1, WWTR1v2: WW domain-containing transcription regulator protein 1 (TAZ), and SNAI1: Snail1. Representative data from at least two independent experiments are provided.

As for `C[C@H]1O[C@@H](O[C@H]2[C@@H](O)C[C@H](O[C@H]3[C@@H](O)C[C@H](O[C@H]4CC[C@@]5(C)[C@H](CC[C@@H]6[C@@H]5C[C@@H](O)[C@]5(C)[C@@H](C7=CC(=O)OC7)CC[C@]65O)C4)O[C@@H]3C)O[C@@H]2C)C[C@H](O)[C@@H]1O` [digoxin], the “TGF-β-induced fibronectin expression (western blot)” value in assay [1] is on record as “prevents TGF-β-induced fibronectin expression in a dose dependent manner”. In addition, the “IC50 / potency for inhibition of TGF-β-induced fibronectin (dose response)” value in assay [2] is recorded as “very low IC50”. Besides, in assay [3], the “transcriptional induction of collagen 1a1, tenascin C, fibronectin, YAP, Snail (TGF-β) and TAZ (IL-8)” value is “prevented the transcriptional induction of collagen 1a1, tenascin C, fibronectin, YAP and Snail downstream of TGF-β signaling and TAZ downstream of the fibroblast chemokine IL-8”.

Values taken from patent publication US11096952B2, “Chemicals and methods to prevent and treat TGF-beta mediated activation of fibroblasts to reduce and treat cancer and fibrosis” (Board of Supervisors of Louisiana State University and …, priority 2016, dated 2021).
